Reference: patent US12534472B2, “Morphic forms of trilaciclib and methods of manufacture thereof” (Pharmacosmos Holding A/S, priority 2020, dated 2026)

Experiments:
Format in all cases: physicochemical
[1] = Solvent solubility screen (approximate solubility)
Experimental: The solvent solubility experiment was carried out using various solvents to determine solid formation. A known volume aliquot (typically 5 volumes) of solvent was added to approximately 10 mg of amorphous Compound 1 as a dihydrochloride. Between each addition, the mixture was checked for dissolution and where no dissolution was apparent, the mixture was heated to ca. 40° C. and checked again. This procedure was continued until dissolution was observed or until 100 volumes of solvent had been added. All observed solids were isolated and analyzed by XRPD.
Examples of solvents include, but are not limited to, 1,4 dioxane, methanol, ethanol, propanol, butanol, butanone, ethoxyethanol, trifluoroethanol, methyl-THF, acetone, acetonitrile, anisole, chlorobenzene, DMSO, DMF, cumene, dichloromethane, ethyl acetate, ethylene glycol, heptane, isopropyl acetate, nitromethane, n-methylpyrrolidone, MIBK, t-BME, tetrahydrofuran, toluene, water and mixtures thereof. The above technique was used to generate the images in FIG. 8, FIG. 9, FIG. 10, FIG. 11, FIG. 12, FIG. 14.

[2] = Thermodynamic solubility in water at pH 4.2; conditions: for Observations at T = 24 hours: 30 mg/mL in water at pH 4.2, agitated at ambient temperature ca. 24 hours; for Observations at T = 0 hours: 30 mg/mL in water at pH 4.2, ambient temperature
Experimental: Thermodynamic solubility was carried out for Pattern 1, Pattern 2/6 mixture, Pattern 3, amorphous di-HCl salts and Pattern 7 in water at pH 4.2. All samples were prepared at 30 mg/mL. Initial observations were made. The samples were agitated at ambient temperature for ca. 24 hours. The samples were collected and observations made. Observed solids were isolated via centrifugation. The mother liquor from the filtered sample was analyzed by HPLC. The pH 4.3 solution was prepared by diluting glacial acetic acid (11.6 mL) to 100 mL in deionized water, then adding sodium acetate (1.07 g) and acetic acid solution (5.9 mL) preparing up to 500 mL with deionized water; then the pH was adjusted to 4.2. The above technique was used to generate the images in FIG. 60.

[3] = Solubility of trilaciclib (general statement)

## CN1CCN(c2ccc(Nc3ncc4cc5n(c4n3)C3(CCCCC3)CNC5=O)nc2)CC1.Cl.Cl [Amorphous Di-HCl]
[1]; 1,4-Dioxane, heated to ca. 40° C. where no dissolution
  Approx. Solubility: <5 mg/mL
[1]; 1-Butanol, heated to ca. 40° C. where no dissolution
  Approx. Solubility: <5 mg/mL
[1]; 2,2,2-Trifluoroethanol
  Approx. Solubility: >200 mg/mL
[1]; 2-Butanone, heated to ca. 40° C. where no dissolution
  Approx. Solubility: <5 mg/mL
[1]; 2-Ethoxyethanol, heated to ca. 40° C. where no dissolution
  Approx. Solubility: <5 mg/mL
[1]; 2-Methyl THF, heated to ca. 40° C. where no dissolution
  Approx. Solubility: <5 mg/mL
[1]; 2-Propanol, heated to ca. 40° C. where no dissolution
  Approx. Solubility: ca 5 mg/mL
[1]; Acetone, heated to ca. 40° C. where no dissolution
  Approx. Solubility: <5 mg/mL
[1]; Acetonitrile/water (90:10% v/v), heated to ca. 40° C. where no dissolution
  Approx. Solubility: <5 mg/mL
[1]; Acetonitrile, heated to ca. 40° C. where no dissolution
  Approx. Solubility: <5 mg/mL
[1]; Anisole, heated to ca. 40° C. where no dissolution
  Approx. Solubility: <5 mg/mL
[1]; Chlorobenzene, heated to ca. 40° C. where no dissolution
  Approx. Solubility: <5 mg/mL
[1]; Cumene, heated to ca. 40° C. where no dissolution
  Approx. Solubility: ca 5 mg/mL
[1]; DMF, heated to ca. 40° C. where no dissolution
  Approx. Solubility: <5 mg/mL
[1]; DMSO, heated to ca. 40° C. where no dissolution
  Approx. Solubility: ca 5 mg/mL
[1]; Deionized Water
  Approx. Solubility: >200 mg/mL
[1]; Dichloromethane, heated to ca. 40° C. where no dissolution
  Approx. Solubility: <5 mg/mL
[1]; Ethanol/water (85:15% v/v), heated to ca. 40° C. where no dissolution
  Approx. Solubility: <5 mg/mL
[1]; Ethanol, heated to ca. 40° C. where no dissolution
  Approx. Solubility: ca 5 mg/mL
[1]; Ethyl Acetate, heated to ca. 40° C. where no dissolution
  Approx. Solubility: <5 mg/mL
[1]; Ethylene glycol
  Approx. Solubility: 50 mg/mL
[1]; Heptane, heated to ca. 40° C. where no dissolution
  Approx. Solubility: <5 mg/mL
[1]; Isopropyl acetate, heated to ca. 40° C. where no dissolution
  Approx. Solubility: <5 mg/mL
[1]; Methanol/water (95:5% v/v)
  Approx. Solubility: 20 mg/mL
[1]; Methanol, heated to ca. 40° C. where no dissolution
  Approx. Solubility: ca 5 mg/mL
[1]; Methyl isobutyl ketone, heated to ca. 40° C. where no dissolution
  Approx. Solubility: <5 mg/mL
[1]; N-Methylpyrrolidone, heated to ca. 40° C. where no dissolution
  Approx. Solubility: <5 mg/mL
[1]; Nitromethane
  Approx. Solubility: 33 mg/mL
[1]; Tetrahydrofuran/water (99:1% v/v), heated to ca. 40° C. where no dissolution
  Approx. Solubility: <5 mg/mL
[1]; Tetrahydrofuran, heated to ca. 40° C. where no dissolution
  Approx. Solubility: <5 mg/mL
[1]; Toluene, heated to ca. 40° C. where no dissolution
  Approx. Solubility: <5 mg/mL
[1]; t-Butylmethyl ether, heated to ca. 40° C. where no dissolution
  Approx. Solubility: <5 mg/mL
[2]
  Observations at T = 24 hours: Yellow solution
  Observations at T = 0 hours: Yellow solution (dissolved

## CN1CCN(c2ccc(Nc3ncc4cc5n(c4n3)C3(CCCCC3)CNC5=O)nc2)CC1 [Pattern 7, 2′-((5-(4-methylpiperazin-1-yl)pyridin-2-yl)amino)-7′,8′-dihydro-6′H-spiro[cyclohexane-1,9′-pyrazino[1′,2′:1,5]pyrrolo[2,3-d]pyrimidin]-6′-one]
[2]
  Observations at T = 24 hours: Off-white slurry
  Observations at T = 0 hours: Off-white slurry

## CN1CCN(c2ccc(Nc3ncc4cc5n(c4n3)C3(CCCCC3)CNC5=O)nc2)CC1 [trilaciclib, 2′-((5-(4-methylpiperazin-1-yl)pyridin-2-yl)amino)-7′,8′-dihydro-6′H-spiro[cyclohexane-1,9′-pyrazino[1′,2′:1,5]pyrrolo[2,3-d]pyrimidin]-6′-one]
[3]; DMSO
  solubility in DMSO: practically insoluble
[3]; water
  solubility in water: not very soluble
